Some test systems named below: BT-549 breast; CAKI-1 renal; DU-145 prostate; HT29 colon; MOLT-4 leukemia; NCI-H226 lung; OVCAR-8 ovarian; SF-268 CNS; SF-539 CNS; SW-620 colon.
Common to all, as to assay: NCI-60 cell line screen, 48 h

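Five concentrations, 48 hours, 96-well plates. GI50 is the concentration that inhibits growth by half. The concentration for full growth arrest is given as TGI.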

Take `Nc1nc2ccc(CNc3ccc(C(=O)NC(CC(=O)O)C(=O)O)cc3)cc2c(=O)[nH]1` (stereo not given): the GI50 in the assay on BT-549 breast was 4.02 µM; in the assay with CAKI-1 renal, 1.37 µM; with DU-145 prostate, 1.58 µM; in the assay on HT29 colon, 0.67 µM; with MOLT-4 leukemia it was 16.3 µM; in the assay with NCI-H226 lung it was more than 65.3 µM. Moreover, the GI50 in the assay on OVCAR-8 ovarian was 1.16 µM; with SF-268 CNS, 5 µM; with SF-539 CNS, 3.3 µM; in the assay with SW-620 colon, 0.525 µM. In addition, the TGI in the assay with BT-549 breast is more than 31 µM; with CAKI-1 renal, more than 100 µM; in the assay with DU-145 prostate, more than 100 µM; in the assay on HT29 colon, more than 100 µM; in the assay with MOLT-4 leukemia it was more than 100 µM; in the assay with NCI-H226 lung, more than 100 µM. The TGI in the assay with OVCAR-8 ovarian, in the assay on SF-268 CNS, in the assay with SF-539 CNS and in the assay with SW-620 colon was more than 100 µM in each case.
As to `CCN1C(=O)/C(=c2\sc3n(c2=O)C2C(NN=3)N(CC)C(=O)N2CC)c2ccccc21` (stereo not given), the GI50 in the assay with BT-549 breast was 1.37 µM; with CAKI-1 renal, 0.465 µM; with DU-145 prostate, 0.582 µM; with HT29 colon it was 0.369 µM; in the assay on MOLT-4 leukemia it was 0.82 µM; in the assay with NCI-H226 lung, 0.736 µM. In addition, the GI50 in the assay with OVCAR-8 ovarian was 0.665 µM; in the assay on SF-268 CNS, 2.57 µM; in the assay on SF-539 CNS, 0.271 µM; in the assay on SW-620 colon, 0.426 µM. The TGI was 14.4 µM in the assay on BT-549 breast; 32.2 µM with CAKI-1 renal; 29.2 µM with DU-145 prostate; more than 100 µM in the assay with HT29 colon; more than 100 µM in the assay with MOLT-4 leukemia; 22.8 µM with NCI-H226 lung. Besides, the TGI was more than 100 µM in the assay with OVCAR-8 ovarian, more than 100 µM in the assay with SF-268 CNS, 0.937 µM in the assay with SF-539 CNS and more than 100 µM with SW-620 colon.
For `COc1cccc2nc(Nc3cccc(NC(=O)c4ccc(N5CCN(C)CC5)c(C(F)(F)F)c4)c3)ccc12`, the GI50 in the assay with BT-549 breast was 2.79 µM; in the assay on CAKI-1 renal, 1.12 µM; in the assay on DU-145 prostate, 1.81 µM; in the assay on HT29 colon it was 0.712 µM; in the assay with MOLT-4 leukemia, 0.876 µM; in the assay on NCI-H226 lung, 2.26 µM. The GI50 is 1.69 µM in the assay with OVCAR-8 ovarian, 1.5 µM in the assay on SF-268 CNS, 0.895 µM in the assay on SF-539 CNS and 0.968 µM in the assay on SW-620 colon. In addition, the TGI in the assay with BT-549 breast came out at 9.39 µM; in the assay on CAKI-1 renal it was 3.46 µM; in the assay with DU-145 prostate, 6.38 µM; with HT29 colon, 1.61 µM; in the assay on MOLT-4 leukemia, 2.27 µM; in the assay with NCI-H226 lung it was 8.61 µM. The TGI with OVCAR-8 ovarian was 5.93 µM; in the assay with SF-268 CNS, 7.3 µM; in the assay with SF-539 CNS, 1.66 µM; with SW-620 colon it was 2.08 µM.
Regarding `O=C1CCc2cc(Br)ccc2O1`, the TGI in the assay on BT-549 breast, in the assay with CAKI-1 renal, in the assay on DU-145 prostate, with HT29 colon, with MOLT-4 leukemia and in the assay with NCI-H226 lung was more than 100 µM throughout. Besides, the TGI with OVCAR-8 ovarian, in the assay with SF-268 CNS, in the assay on SF-539 CNS and in the assay with SW-620 colon was more than 100 µM each time.
Take `NC(=O)c1c[nH]c2ncnc(N)c12`: the GI50 is 21.6 µM in the assay on BT-549 breast; 2.69 µM in the assay on CAKI-1 renal; 44.6 µM with DU-145 prostate; 26.6 µM with HT29 colon; 32.9 µM with MOLT-4 leukemia; 67.3 µM in the assay with NCI-H226 lung. The GI50 with OVCAR-8 ovarian was 90.2 µM; in the assay on SF-268 CNS it was 39.3 µM; in the assay with SF-539 CNS, 44.8 µM; in the assay with SW-620 colon, 27.1 µM. Also, the TGI in the assay on BT-549 breast was more than 100 µM; in the assay with CAKI-1 renal, 33.8 µM; with DU-145 prostate it was more than 100 µM; with HT29 colon, more than 100 µM; with MOLT-4 leukemia, more than 100 µM; in the assay with NCI-H226 lung it was more than 100 µM. The TGI with OVCAR-8 ovarian, in the assay on SF-268 CNS, in the assay with SF-539 CNS and in the assay with SW-620 colon was more than 100 µM throughout.
As to `O=C1/C(=C/c2ccc(Cl)cc2)CN(Cc2cn(CCCNc3ccnc4cc(Cl)ccc34)nn2)C/C1=C\c1ccc(Cl)cc1`, the GI50 with BT-549 breast was 1.64 µM; in the assay on CAKI-1 renal it was 0.734 µM; with DU-145 prostate, 1.16 µM; with HT29 colon, 0.27 µM; in the assay with MOLT-4 leukemia, 0.878 µM; in the assay with NCI-H226 lung it was 1.92 µM. Also, the GI50 was 0.572 µM in the assay on OVCAR-8 ovarian, 0.54 µM with SF-268 CNS, 0.645 µM in the assay with SF-539 CNS and 0.316 µM in the assay with SW-620 colon. Also, the TGI was 3.18 µM in the assay on BT-549 breast; 2.92 µM with CAKI-1 renal; 2.47 µM with DU-145 prostate; 0.775 µM in the assay on HT29 colon; more than 24.5 µM in the assay on MOLT-4 leukemia; 4.39 µM in the assay on NCI-H226 lung. Further, the TGI with OVCAR-8 ovarian is 1.41 µM; in the assay on SF-268 CNS, 2.01 µM; with SF-539 CNS, 1.72 µM; in the assay on SW-620 colon it was 1.37 µM.
Turning to `O=S(=O)(NCCNc1nccc(-c2c(-c3ccc(F)cc3)nc3sccn23)n1)c1ccc(O)cc1`, the GI50 in the assay on BT-549 breast was 3.14 µM; in the assay on CAKI-1 renal it was 4.07 µM; in the assay with DU-145 prostate, 3.17 µM; with HT29 colon it was 2.09 µM; with MOLT-4 leukemia, 3.21 µM; in the assay on NCI-H226 lung it was 6.91 µM. Further, the GI50 is 1.98 µM in the assay with OVCAR-8 ovarian, 3.99 µM in the assay on SF-268 CNS, 11.3 µM with SF-539 CNS and 4.47 µM in the assay with SW-620 colon. Also, the TGI with BT-549 breast is 19.1 µM; with CAKI-1 renal, 48.3 µM; with DU-145 prostate, 28.8 µM; in the assay on HT29 colon, 37.4 µM; in the assay on MOLT-4 leukemia it was 15.7 µM; with NCI-H226 lung, 21.9 µM. The TGI in the assay with OVCAR-8 ovarian was 22.5 µM; in the assay with SF-268 CNS it was 56.2 µM; with SF-539 CNS it was 30.7 µM; in the assay on SW-620 colon, 41.8 µM.

The values are drawn from PubChem BioAssay (NCI).
